In brackets after ≈: the same amount, converted by molar mass.
How the values were obtained:
Format in all cases: cell-based
Geotrichum sp. = assay: inhibition of pathogenic strains isolated from contaminated human members, Geotrichum sp.; conditions: 12 strains studied
Experimental: (§3) Studies were also conducted on the activity of the glucose derivative of nystatin, as compared with nystatin, in relation to a series of pathogenic strains of Candida and Geotrichum isolated from contaminated human members.

Candida albicans [1] = assay: antimicrobial activity in solid nutrient medium (serial dilution), Candida albicans; conditions: solid Sabouraud medium, 36° C, 24 hours
Experimental: (§1) (a) determination of the antimicrobial activity of antibiotics and their derivatives in solid nutrient medium-- table 1
(§2) The antimicrobial activity in solid nutrient medium has been estimated with the aid of the serial dilution method as follows: 1 mg of antibiotic was dissolved in 1 ml of dimethylsulphoxide and diluted with 9 ml of sterile water. Serial dilutions in water had been performed and the minimum concentration inhibiting the growth of standard strains of Candida albicans and Saccahromyces cerevisiae estimated: 0.5 ml of the antibiotic solution was mixed in a Petri dish 10 cm in diameter with 9.5 ml of Sabouraud medium having a temperature of about 60° C. After mixing, solidifying the nutrient agar and inoculating the test microorganism on the surface, they were incubated at 36° C for 24 hours. The minimum inhibitory concentration was stated on the basis of observed absence of microorganism growth.

Candida albicans [2] = assay: inhibition of pathogenic strains isolated from contaminated human members, Candida albicans; conditions: 12 strains studied
Experimental: as §3

Candida sp. = assay: inhibition of pathogenic strains isolated from contaminated human members, Candida sp.; conditions: 8 strains studied
Experimental: as §3

Saccahromyces cerevisiae = assay: antimicrobial activity in solid nutrient medium (serial dilution), Saccharomyces cerevisiae; conditions: solid Sabouraud medium, 36° C, 24 hours
Experimental: as §1, §2

## C[C@@H]1[C@H](O)[C@@H](C)/C=C/C=C/CC/C=C/C=C/C=C/C=C/C(O[C@H]2O[C@H](C)[C@@H](O)[C@H](N)[C@@H]2O)CC2O[C@](O)(CC(O)C(O)CCC(O)CC(O)CC(O)CC(=O)O[C@H]1C)CC(O)C2C(=O)O (some centres unmarked) [nystatin]
Geotrichum sp.; Geotrichum sp. after 24 hrs, 1.56 mcg/ml
  Number of strains the growth of which has been inhibited: 0 strains
Geotrichum sp.; Geotrichum sp. after 24 hrs, 3.12 mcg/ml
  Number of strains the growth of which has been inhibited: 2 strains
Geotrichum sp.; Geotrichum sp. after 24 hrs, 6.25 mcg/ml
  Number of strains the growth of which has been inhibited: 10 strains
Geotrichum sp.; Geotrichum sp. after 24 hrs, 12.5 mcg/ml
  Number of strains the growth of which has been inhibited: 0 strains
Geotrichum sp.; Geotrichum sp. after 24 hrs, 25.0 mcg/ml
  Number of strains the growth of which has been inhibited: 0 strains
Geotrichum sp.; Geotrichum sp. after 24 hrs, 50.0 mcg/ml
  Number of strains the growth of which has been inhibited: 0 strains
Geotrichum sp.; Geotrichum sp. after 48 hrs, 1.56 mcg/ml
  Number of strains the growth of which has been inhibited: 0 strains
Geotrichum sp.; Geotrichum sp. after 48 hrs, 3.12 mcg/ml
  Number of strains the growth of which has been inhibited: 0 strains
Geotrichum sp.; Geotrichum sp. after 48 hrs, 6.25 mcg/ml
  Number of strains the growth of which has been inhibited: 5 strains
Geotrichum sp.; Geotrichum sp. after 48 hrs, 12.5 mcg/ml
  Number of strains the growth of which has been inhibited: 7 strains
Geotrichum sp.; Geotrichum sp. after 48 hrs, 25.0 mcg/ml
  Number of strains the growth of which has been inhibited: 0 strains
Geotrichum sp.; Geotrichum sp. after 48 hrs, 50.0 mcg/ml
  Number of strains the growth of which has been inhibited: 0 strains
Candida albicans [1]
  Minimum inhibitory concentration against Candida albicans: 2 µg/mL (≈ 2.16 µM)
Candida albicans [2]; Candida albicans after 24 hrs, 1.56 mcg/ml
  Number of strains the growth of which has been inhibited: 1 strains
Candida albicans [2]; Candida albicans after 24 hrs, 3.12 mcg/ml
  Number of strains the growth of which has been inhibited: 11 strains
Candida albicans [2]; Candida albicans after 24 hrs, 6.25 mcg/ml
  Number of strains the growth of which has been inhibited: 0 strains
Candida albicans [2]; Candida albicans after 24 hrs, 12.5 mcg/ml
  Number of strains the growth of which has been inhibited: 0 strains
Candida albicans [2]; Candida albicans after 24 hrs, 25.0 mcg/ml
  Number of strains the growth of which has been inhibited: 0 strains
Candida albicans [2]; Candida albicans after 24 hrs, 50.0 mcg/ml
  Number of strains the growth of which has been inhibited: 0 strains
Candida albicans [2]; Candida albicans after 48 hrs, 1.56 mcg/ml
  Number of strains the growth of which has been inhibited: 0 strains
Candida albicans [2]; Candida albicans after 48 hrs, 3.12 mcg/ml
  Number of strains the growth of which has been inhibited: 2 strains
Candida albicans [2]; Candida albicans after 48 hrs, 6.25 mcg/ml
  Number of strains the growth of which has been inhibited: 10 strains
Candida albicans [2]; Candida albicans after 48 hrs, 12.5 mcg/ml
  Number of strains the growth of which has been inhibited: 0 strains
Candida albicans [2]; Candida albicans after 48 hrs, 25.0 mcg/ml
  Number of strains the growth of which has been inhibited: 0 strains
Candida albicans [2]; Candida albicans after 48 hrs, 50.0 mcg/ml
  Number of strains the growth of which has been inhibited: 0 strains
Candida sp.; Candida sp. after 24 hrs, 1.56 mcg/ml
  Number of strains the growth of which has been inhibited: 2 strains
Candida sp.; Candida sp. after 24 hrs, 3.12 mcg/ml
  Number of strains the growth of which has been inhibited: 3 strains
Candida sp.; Candida sp. after 24 hrs, 6.25 mcg/ml
  Number of strains the growth of which has been inhibited: 1 strains
Candida sp.; Candida sp. after 24 hrs, 12.5 mcg/ml
  Number of strains the growth of which has been inhibited: 2 strains
Candida sp.; Candida sp. after 24 hrs, 25.0 mcg/ml
  Number of strains the growth of which has been inhibited: 0 strains
Candida sp.; Candida sp. after 24 hrs, 50.0 mcg/ml
  Number of strains the growth of which has been inhibited: 0 strains
Candida sp.; Candida sp. after 48 hrs, 1.56 mcg/ml
  Number of strains the growth of which has been inhibited: 0 strains
Candida sp.; Candida sp. after 48 hrs, 3.12 mcg/ml
  Number of strains the growth of which has been inhibited: 3 strains
Candida sp.; Candida sp. after 48 hrs, 6.25 mcg/ml
  Number of strains the growth of which has been inhibited: 1 strains
Candida sp.; Candida sp. after 48 hrs, 12.5 mcg/ml
  Number of strains the growth of which has been inhibited: 3 strains
Candida sp.; Candida sp. after 48 hrs, 25.0 mcg/ml
  Number of strains the growth of which has been inhibited: 1 strains
Candida sp.; Candida sp. after 48 hrs, 50.0 mcg/ml
  Number of strains the growth of which has been inhibited: 0 strains
Saccahromyces cerevisiae
  Minimum inhibitory concentration against cerevisiae: 2 µg/mL (≈ 2.16 µM)

From patent US4093796A, “Antibiotic derivatives of polyene macrolide group and method of obtaining the same” (Politechnika Gdanska, priority 1971, dated 1978)
